Data as given in patent US12691101B2, “Compound and method for preventing or treating of respiratory diseases comprising the same as an active ingredient” (YONSEI UNIVERSITY, UNIVERSITY - INDUSTRY FOUNDATION (UIF), priority 2019, dated 2026).

Tests used:
SLC26A6 = biological target: T1, SLC26A6 (Homo sapiens, UniProt Q9BXS9); experiment: Cl^−/HCO3^− exchange in CHO-K1 cells expressing SLC26A6; format: cell-based; details: weakly inhibited
T1 construct: expressed in transfected cells; host or cells: CHO-K1
T1 sequence (Q9BXS9 whole entry, species assumed): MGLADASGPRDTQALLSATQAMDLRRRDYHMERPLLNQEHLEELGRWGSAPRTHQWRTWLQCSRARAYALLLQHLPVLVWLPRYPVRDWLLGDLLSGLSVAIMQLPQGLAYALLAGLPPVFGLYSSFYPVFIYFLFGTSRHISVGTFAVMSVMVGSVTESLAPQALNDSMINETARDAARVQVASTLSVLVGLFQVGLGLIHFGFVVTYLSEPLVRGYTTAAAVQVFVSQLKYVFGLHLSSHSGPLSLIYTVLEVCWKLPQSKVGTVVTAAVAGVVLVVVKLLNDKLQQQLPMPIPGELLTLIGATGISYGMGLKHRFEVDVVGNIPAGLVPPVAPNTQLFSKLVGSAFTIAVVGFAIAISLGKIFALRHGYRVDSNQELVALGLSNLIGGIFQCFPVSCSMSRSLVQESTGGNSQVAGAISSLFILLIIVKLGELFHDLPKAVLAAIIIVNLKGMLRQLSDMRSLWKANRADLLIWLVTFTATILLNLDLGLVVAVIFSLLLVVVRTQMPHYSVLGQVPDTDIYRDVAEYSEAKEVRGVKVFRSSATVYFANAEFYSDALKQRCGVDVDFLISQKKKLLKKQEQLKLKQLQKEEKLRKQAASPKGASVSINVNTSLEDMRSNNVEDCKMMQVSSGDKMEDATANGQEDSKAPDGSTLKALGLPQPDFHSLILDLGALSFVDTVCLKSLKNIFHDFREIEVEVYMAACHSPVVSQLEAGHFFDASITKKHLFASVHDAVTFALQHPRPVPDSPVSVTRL
Procedure: (A) The inhibition of mouse pendrin (mPDS)-mediated Cl^−/I^− exchange activity by F56 was measured in CHO-K1 cells (mean±S.E., n=5). The indicated concentration of F56 was pretreated for 10 minutes. (B) Summary of dose-response for inhibition of the human pendrin (hPDS)-mediated (closed circle, FIG. (a), C) and mPDS-mediated (open circle) Cl^−/I^− exchange activity. (C-F) Representative traces of intracellular pH in CHO-K1 cells expressing SLC26A3, SLC26A6, SLC26A7 and SLC26A9 were shown. The application of Cl^− free solution induced intracellular alkalization by Cl^−/HCO3^− exchange. The indicated concentration of F56 was pretreated for 10 minutes. (G) the effect of F56 (100 μM) on the CFTR chloride channel activity was measured in FRT cells expressing human CFTR. The CFTR current was activated by 20 μM forskolin and was inhibited by 10 μM CFTRinh-172. (H) The effect of F56 (100 μM) on the AN01 chloride channel activity was measured in FRT cells expressing human AN01. Before 10 minutes prior to AN01 activation by 100 μM ATP, F56 was added. (Right) Peak current summary (mean±S.E., n=3). (I) The effect of F56 on the hERG (Kv11.1) potassium channel activity was measured in HEK293T cells expressing human Kv11.1 (mean±S.E., n=4). […] (J) The effect of F56 on the 5-HT2A channel activity was measured in FRT cells expressing human 5-HT2A (mean±S.E., n=4). […]

NF-κ = experiment: IVIS lung fluorescence in LPS-treated NF-κ reporter/SPC-Cre-ERT2 mice; format: in vivo, mouse; details: 10 mg/kg i.p., 6 hours after LPS
From the text: From Orient Bio (Sungnam, Republic of Korea), 8-10-week-old wild-type male C57BL/6J mice having a body weight of 20-24 g were purchased. Food and water were provided to all the animals, and the similar optical cycle of day and night was applied. Transfected NF-κ reporter/SPC-Cre-ERT2 mice were used for IVIS in the present invention. Briefly, NF-κ reporter mice contain ROSA26 lox-STOP-lox-cassette inserted between a promoter and NF-κ gene. In general, a stop gene is positioned between loxP and loxP, and NF-κ is not expressed. NF-κ reporter/SPC-Cre-ERT2 mice were obtained by raising ROSA26R mice to surfactant protein C(SPC)-Cre-ERT2 mice. The Cre-ERT2 recombinase activity in these transfected mice was induced by tamoxifen. These NF-κ reporter/SPC-Cre-ERT2 mice express NF-κ activity in the alveolar epithelium by one of dTomato fluorescence or luciferase in presence of tamoxifen. […]
Imaging of living animals and organs was performed using IVIS […] imaging system Caliper Life Sciences, Preston Brook Runcorn, UK). […] Fluorescence excite light was provided by a halogen lamp combined with an appropriate excite filter. […] The fluorescence imaging was obtained with an excitation wavelength of 554 nm and an emission wavelength of 581 nm (dTomato). […] In Living Image software (version 3.2, Caliper Life Sciences), using an area of interest tool, fluorescence was quantified.

pendrin = biological target: T2, pendrin (Homo sapiens, UniProt O43511); experiment: Pendrin-mediated Cl^−/HCO3^− exchange in IL-4-treated HNE and HBE cells; format: cell-based
T2 construct: endogenous in cells; host or cells: primary HNE and HBE cells, IL-4 treated
T2 sequence (O43511 whole entry): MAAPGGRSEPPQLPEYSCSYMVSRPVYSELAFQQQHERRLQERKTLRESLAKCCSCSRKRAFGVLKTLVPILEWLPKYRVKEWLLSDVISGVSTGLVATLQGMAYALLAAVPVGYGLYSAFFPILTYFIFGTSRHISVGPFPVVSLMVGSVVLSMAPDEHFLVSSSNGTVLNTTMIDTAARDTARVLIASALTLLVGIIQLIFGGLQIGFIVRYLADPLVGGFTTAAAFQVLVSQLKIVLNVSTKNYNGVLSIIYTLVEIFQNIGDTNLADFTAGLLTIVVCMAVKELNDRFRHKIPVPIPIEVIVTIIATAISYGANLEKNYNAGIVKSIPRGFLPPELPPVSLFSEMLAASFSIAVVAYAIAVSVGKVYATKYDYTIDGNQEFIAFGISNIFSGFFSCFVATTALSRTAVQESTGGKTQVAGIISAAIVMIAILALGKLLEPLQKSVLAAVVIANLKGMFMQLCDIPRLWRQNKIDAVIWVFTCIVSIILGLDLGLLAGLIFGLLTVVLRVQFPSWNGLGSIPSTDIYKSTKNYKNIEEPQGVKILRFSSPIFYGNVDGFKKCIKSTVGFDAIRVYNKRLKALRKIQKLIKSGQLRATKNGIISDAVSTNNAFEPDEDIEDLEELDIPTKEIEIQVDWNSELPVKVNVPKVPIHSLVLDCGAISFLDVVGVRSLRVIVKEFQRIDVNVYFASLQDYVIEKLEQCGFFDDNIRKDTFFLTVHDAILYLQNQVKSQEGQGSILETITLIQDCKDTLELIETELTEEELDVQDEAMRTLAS
Procedure: Chinese hamster ovary (CHO)-K1 cells were maintained in a DMEM medium containing 10% fetal bovine serum (FBS), 100 units/ml penicillin and 100 100 μg/ml streptomycin. CHO-K1 cells were stably transfected with pcDNA3.1 encoding halide sensor YFP-H148Q/I152L/F46L and human wild-type (WT)-pendrin. For distribution of primary culture of human nasal cavity epithelium (HNE) cells, passage-2 cells were seeded into transwell-transparent culture inserts with a pore size of 0.45 μm (Costar Co., Cambridge, MA) at a density of 2×10^5 cells/cm^2. […]
For measurement of Cl^−/HCO3^− exchange activity, intracellular pH (pHi) was measured in WT-pendrin expressing CHO-K1 and HNE cells using pH sensor SNARF5-AM (Molecular Probes). The cells were treated with 5 μM SNARF5-AM for 30 minutes, and then were equipped in a perfusion chamber on the stage of a reverse fluorescence microscope (Nikon, Tokyo, Japan) equipped with a cooled charge-coupled device camera (Zyla sCMOS), image acquisition and analysis software (Meta Imaging Series 7.7). […] SNARF5 fluorescence was recorded at 515±10 nm of the excitation wavelength and 640±10 nm of the emission wavelength, and intracellular pH calibration was performed with a solution including 145 mM KCl, 10 mM HEPES and […] nigericin having a calibrated pH to 6.2-7.6.

With CC(C)(C)c1ccc(C2=NC(=Cc3cccs3)C(=O)O2)cc1 [F56, 2-(4-(tert-butyl)phenyl)-4-(thiophen-2-ylmethylene)oxazol-5(4H)-one] the IC50 (SLC26A6) was over 100 µM, the “fluorescence of the excised lung (NF-κ activation)” value (NF-κ) was “inhibited” and the “inhibition of pendrin-mediated Cl^−/HCO3^− exchange activity” value (pendrin; IL-4-treated HNE and HBE cells, acute treatment) was “potentially inhibited”. The “IL-4-induced upregulation of the Cl^−/HCO3^− exchange activity” value (pendrin; long-term treatment, HNE cells) was “strongly reduced”.
